Results: patent US20050159485A1, “Combinations for the treatment of immunoinflammatory disorders and proliferative skin diseases” (priority 2002, published 2005)

Columns and labels:
[1] = tested on: TNFα secretion from stimulated white blood cells; test: Secondary screen, TNFα ELISA, white blood cells stimulated using 1 μg/ml LPS; assay type: cell-based, human
Experimental: (§1) Stock solutions at 1.6 mg/ml of alprostadil, and 4.0 mg/ml of […] (Sigma-Aldrich, St. Louis, Mo.; catalog numbers P5515 and R-2625, respectively) were made in dimethylsulfoxide (DMSO). The alprostadil master plates were made by adding 25 μl of the concentrated stock solution to columns 3, 9, and 15 (rows C through N) of a polypropylene 384-well storage plate that had been pre-filled with 75 μl of anhydrous DMSO. Using a TomTec Quadra Plus liquid handler, the 25 μl of alprostadil stock solution was serially diluted four times into the adjacent columns (columns 4-7, 10-13, 16-19). […] The tretinoin master plates were made by adding 25 μl of the concentrated stock solution to the appropriate wells (row C, columns 3-8; row C, columns 9-14; row C, columns 15-20; row I, columns 3-8; row I, columns 9-14; row I, columns 15-20) of the appropriate master polypropylene 384-well storage plate. These master plates had been pre-filled with 75 μl of anhydrous DMSO. Using the TomTec Quadra Plus liquid handler, the 25 μl was serially diluted four times in the adjacent rows (rows D-G, and J-M). […] Master plates were sealed and stored at −20° C. until ready for use.
This dilution plate was then mixed and a 10 μl aliquot transferred to the final assay plate, which had been pre-filled with 40 μl/well RPM media containing the appropriate stimulant to activate TNFα secretion (see below).
(§2) The compound dilution matrix was assayed using a TNFα ELISA method. Briefly, a […] suspension of diluted human white blood cells contained within each well of a polystyrene 384-well plate (NalgeNunc) was stimulated to secrete TNFα by treatment with a final concentration of 10 ng/ml phorbol 12-myristate 13-acetate (Sigma) and 750 ng/ml ionomycin (Sigma). Various concentrations of each test compound were added at the time of stimulation. After 16-18 hours of incubation at 37° C. in a humidified incubator, the plate was centrifuged and the supernatant transferred to a white opaque polystyrene 384 well plate (NalgeNunc, Maxisorb) coated with an anti-TNFα antibody (PharMingen, #18631D). After a two-hour incubation, the plate was washed (Tecan PowerWasher 384) with phosphate buffered saline (PBS) containing 0.1% Tween 20 (polyoxyethylene sorbitan monolaurate) and incubated for an additional one hour with another anti-TNFα antibody that was biotin labeled (PharMingen, 18642D) and horseradish peroxidase (HRP) coupled to strepavidin (PharMingen, #13047E).). After the plate was washed with 0.1% Tween 20/PBS, an HRP-luminescent substrate was added to each well and light intensity measured using a LJL Analyst plate luminometer. Sets of control wells contained a serial dilution of Cyclosporin A (Sigma) starting at a final concentration of 0.5 μg/ml.
In this experiment, white blood cells were stimulated using 1 μg/ml LPS.

[2] = tested on: TNFα secretion from stimulated white blood cells; test: TNFα ELISA, white blood cells stimulated with phorbol 12-myristate 13-acetate and ionomycin; assay type: cell-based, human; parameters: inhibition of TNFα secretion: dose or concentration left out as unconfirmed; conditions: PMA/ionomycin
Experimental: as §1
The final alprostadil/tretinoin combination plates were generated by transferring 1 μl from each of the alprostadil and tretinoin master plates to a dilution plate containing 100 μl of media (RPMI; Gibco BRL, #11875-085), 10% Fetal Bovine Serum (Gibco BRL, #25140-097), 2% Penicillin/Streptomycin (Gibco BRL, #15140-122)) using the TomTec Quadra Plus liquid handler. This dilution plate was then mixed and a 10 μl aliquot transferred to the final assay plate, which had been pre-filled with 40 μl/well RPM media containing the appropriate stimulant to activate TNFα secretion (see below).
as §2
The combination of 0.052 μM tretinoin and 0.004 μM alprostadil was able to suppress TNFα secretion by 42%. […] Maximal tretinoin efficacy (−36% TNFα suppression) is therefore maintained while reducing the concentration of total drug species by greater than 90% (0.052 μM tretionoin+0.004 μM alprostadil compared to 0.832 μM tretinoin alone).

[3] = Homo sapiens, Alprostadil 0.004 μM alone
[4] = Homo sapiens, Alprostadil 0.018 μM alone
[5] = Homo sapiens, Alprostadil 0.071 μM alone
[6] = Homo sapiens, Tretinoin 0.052 μM alone
[7] = Homo sapiens, Tretinoin 0.208 μM alone
[8] = Homo sapiens, Tretinoin 0.832 μM alone
[9] = Homo sapiens, Tretinoin 3.329 μM alone
[10] = Homo sapiens, Tretinoin 13.316 μM alone

CCCCC[C@H](O)/C=C/[C@H]1[C@H](O)CC(=O)[C@@H]1CCCCCCC(=O)O [Alprostadil, (11α, 13E, 15S)-11,15-dihydroxy-9-oxoprost-13-enoic acid]
inhibition at 0.004 µM [1, 3]: 44.6%
inhibition at 0.009 µM ([1]; Homo sapiens, Alprostadil 0.009 μM alone): 49.2%
inhibition at 0.018 µM [1, 4]: 54.8%
inhibition at 0.035 µM ([1]; Homo sapiens, Alprostadil 0.035 μM alone): 57.3%
inhibition at 0.071 µM [1, 5]: 71.5%
inhibition at 0.141 µM ([1]; Homo sapiens, Alprostadil 0.141 μM alone): 74.3%
inhibition at 0.282 µM ([1]; Homo sapiens, Alprostadil 0.282 μM alone): 75.7%
inhibition at 0.564 µM ([1]; Homo sapiens, Alprostadil 0.564 μM alone): 79.5%
inhibition at 1.128 µM ([1]; Homo sapiens, Alprostadil 1.128 μM alone): 81.6%
alprostadil concentration needed alone to attain 64.0% TNFα inhibition ([1]; alprostadil alone): ≥ 0.035 µM
maximal TNFα-inhibitory effect ([1]; alprostadil alone, concentration of at least 1.128 μM): 82%
inhibition at 0.004 µM [2, 3]: 33.3%
inhibition at 0.018 µM [2, 4]: 39.8%
inhibition at 0.071 µM [2, 5]: 50.5%
inhibition at 0.283 µM ([2]; Homo sapiens, Alprostadil 0.283 μM alone): 53.8%
inhibition at 1.13 µM ([2]; Homo sapiens, Alprostadil 1.130 μM alone): 56.8%
inhibition of TNFα secretion ([2]; alprostadil alone): 57%

CC1=C(/C=C/C(C)=C/C=C/C(C)=C/C(=O)O)C(C)(C)CCC1 [Tretinoin, 3,7-dimethyl-9-(2,6,6-trimethylcyclohex-1-enyl)nona-2,4,6,8-all-trans-tetraenoic acid]
inhibition at 0.052 µM [1, 6]: 32.7%
inhibition at 0.104 µM ([1]; Homo sapiens, Tretinoin 0.104 μM alone): 35.1%
inhibition at 0.208 µM [1, 7]: 32.5%
inhibition at 0.416 µM ([1]; Homo sapiens, Tretinoin 0.416 μM alone): 32.7%
inhibition at 0.832 µM [1, 8]: 38.4%
inhibition at 1.664 µM ([1]; Homo sapiens, Tretinoin 1.664 μM alone): 37.6%
inhibition at 3.329 µM [1, 9]: 44.1%
inhibition at 6.658 µM ([1]; Homo sapiens, Tretinoin 6.658 μM alone): 48.7%
inhibition at 13.316 µM [1, 10]: 52.1%
TNFα inhibition ([1]; tretinoin alone, concentrations from 6.7-13.3 μM): approximately 50%
inhibition at 0.052 µM [2, 6]: 13.8%
inhibition at 0.208 µM [2, 7]: 28.7%
inhibition at 0.832 µM [2, 8]: 34.5%
inhibition at 3.329 µM [2, 9]: 34.1%
inhibition at 13.316 µM [2, 10]: 36.2%
maximal inhibition of TNFα secretion ([2]; tretinoin alone, concentrations ranging from 0.83-13.3 μM): 36%
